In paper PMC11803614 (2025):
One block for each molecule: values may come before it.

What was measured:
Assay in all cases: electrochemical aptamer-based sensor, square-wave voltammetry titration (KDM)
[1] = tested on: procaine (DNA, aptamer) AGACAAGGAAAATCCTTCAACGAAGTGGGTCG; conditions: undiluted bovine blood, room temperature and 37 °C; 0% carboxylate SAM; no Kd, upper plateau not reached
[2] = tested on: tryptophan (DNA, aptamer) CCGGTGGTGTAGTTCCGGCGTGGGGAAGG; conditions: PBS (ion concentrations not given), room temperature, 0% carboxylate SAM, immobilised aptamer, biphasic, higher affinity event
[3] = tested on: vanc-45 (also printed vanc-48) (DNA, aptamer) CGAGGGTACCGCAATAGTACTTATTGTTCGCCTATTGTGGGTCGG; conditions: PBS (ion concentrations not given), room temperature, 0% carboxylate (6-mercaptohexanol) SAM, immobilised aptamer
[4] = tested on: vanc-28 (DNA, aptamer) GCGAGGGTACCGCTTAAAGTGGGTCGGC; conditions: PBS (ion concentrations not given), room temperature, 0% carboxylate (6-mercaptohexanol) SAM, immobilised aptamer

binding [1]: yes
SMILES: CCN(CC)CCOC(=O)c1ccc(N)cc1

Kd [2]: 13.0 ± 1.4 µM
SMILES: N[C@@H](Cc1c[nH]c2ccccc12)C(=O)O

Kd [3]: 15.2 ± 0.4 µM
Kd [4]: 0.6 ± 0.1 µM
SMILES: CN[C@H](CC(C)C)C(=O)N[C@H]1C(=O)N[C@@H](CC(N)=O)C(=O)N[C@H]2C(=O)N[C@H]3C(=O)N[C@H](C(=O)N[C@H](C(=O)O)c4cc(O)cc(O)c4-c4cc3ccc4O)[C@H](O)c3ccc(c(Cl)c3)Oc3cc2cc(c3O[C@@H]2O[C@H](CO)[C@@H](O)[C@H](O)[C@H]2O[C@H]2C[C@](C)(N)[C@H](O)[C@H](C)O2)Oc2ccc(cc2Cl)[C@H]1O
